Measured values from US9301970B2, “Methods and compositions for treating trauma-hemorrhage using estrogen and derivatives thereof” (The UAB Research Foundation, priority 2006, dated 2016).

How the values were obtained:
[1] = tested on: Adult male CD1 mice; assay: Spinal cord injury (SCI): light microscopy, histological score, Luxol fast blue; type: in vivo, mouse
Procedure: (§1) Mice were anaesthetized using chloral hydrate (400 mg/kg body weight) (Genovese 2006). A longitudinal incision was made on the midline of the back, exposing the paravertebral muscles. These muscles were dissected away exposing T5-T8 vertebrae. The spinal cord was exposed via a four-level T6-T7 laminectomy and SCI was produced by extradural compression using an aneurysm clip with a closing force of 24 g. Following surgery, 1 ml of saline was administered subcutaneously in order to replace the blood volume lost during surgery. During the surgery and recovery from anesthesia, the mice were placed on a warm heating pad and covered with a warm towel. The mice were singly housed in a temperature-controlled room at 27° C. and survival was measured over a period of 10 days. […]
The segments of each spinal cord were evaluated by an experienced histopathologist (RO). Damaged neurons were counted and the histopathologic changes of the gray matter were scored on a 6-point scale (Sirin 2000): 0, no lesion observed, 1, gray matter contained 1 to 5 eosinophilic neurons; 2, gray matter contained 5 to 10 eosinophilic neurons; 3, gray matter contained more than 10 eosinophilic neurons; 4, small infarction (less than one third of the gray matter area); 5, moderate infarction; (one third to one half of the gray matter area); 6, large infarction (more than half of the gray matter area). […]

[2] = tested on: Myeloperoxidase (MPO) activity; assay: SCI: myeloperoxidase activity (neutrophil infiltration); type: in vivo, mouse; settings: SCI mice, 24 hours; dosing as E50; ICI 182,780 = co-administration with 17β-estradiol
Procedure: Mice were anaesthetized using chloral hydrate (400 mg/kg body weight) (Genovese 2006). A longitudinal incision was made on the midline of the back, exposing the paravertebral muscles. These muscles were dissected away exposing T5-T8 vertebrae. The spinal cord was exposed via a four-level T6-T7 laminectomy and SCI was produced by extradural compression using an aneurysm clip with a closing force of 24 g. Following surgery, 1 ml of saline was administered subcutaneously in order to replace the blood volume lost during surgery. During the surgery and recovery from anesthesia, the mice were placed on a warm heating pad and covered with a warm towel. The mice were singly housed in a temperature-controlled room at 27° C. and survival was measured over a period of 10 days. Food and water were provided to the mice ad libitum. During this time period, the animals' bladders were manually voided twice a day until the mice were able to regain normal bladder function. In all injured groups, the spinal cord was compressed for 1 min. […] Myeloperoxidase (MPO) activity, an indicator of PMN accumulation, was determined as previously described (Mullane 1985) 24 h after SCI. […] The rate of change in absorbance was measured spectrophotometrically at 650 nm. MPO activity was defined as the quantity of enzyme degrading 1 μmol of peroxide per minute at 37° C. and was expressed in milliunits/g of wet tissue.

[3] = tested on: Bax and Bcl-2; assay: SCI: Western blot analysis for Bax and Bcl-2; type: in vivo, mouse; settings: spinal cord, 24 hours after SCI; ICI 182,780 = co-administration with 17β-estradiol
Procedure: as §1, with “days. Food and water were provided to the mice ad libitum.” for “days.”
For Western blot analysis, 70 μg protein of lysates were mixed with gel loading buffer (50 mM Tris, 10% (w/v), sodium dodecyl sulphate (SDS), 10% (w/v) glycerol, 10% (v/v) 2- mercaptoethanol, 2 mg/ml bromophenol), boiled for 5 min, and subjected to SDSPAGE (12% polyacrylamide). […] The protein bands of Bax (23˜kDa), or Bcl -2 (26˜kDa) on x-ray film were scanned and densitometrically analyzed with a model GS-700 imaging densitometer (Bio-Rad Laboratories). […]

[4] = tested on: TNF-α, IL-1β, IL-6, MCP-1; assay: SCI: quantitative real time PCR of cytokines and chemokines in spinal cord; settings: SCI mice, 24 h; dosing as E50; ICI 182,780 = co-administration with 17β-estradiol
Procedure: A longitudinal incision was made on the midline of the back, exposing the paravertebral muscles. These muscles were dissected away exposing T5-T8 vertebrae. […] Following surgery, 1 ml of saline was administered subcutaneously in order to replace the blood volume lost during surgery. During the surgery and recovery from anesthesia, the mice were placed on a warm heating pad and covered with a warm towel. The mice were singly housed in a temperature-controlled room at 27° C. and survival was measured over a period of 10 days. Food and water were provided to the mice ad libitum. During this time period, the animals' bladders were manually voided twice a day until the mice were able to regain normal bladder function. In all injured groups, the spinal cord was compressed for 1 min. Sham-injured animals were only subjected to laminectomy.
(§2) At different time points (see FIG. 30), the mice (n=10 from each group for each of the 3 time points) were sacrificed in order to evaluate the various parameters as described below.
Total cellular RNA was isolated from the aqueous phase then the levels of IL-α, TNF-α, MCP-1, IL-6 gene products were determined by Real Time PCR. The amount of each PCR product of gene target was normalized to Glyceraldehyde-3-phosphate dehydrogenase (GAPDH). The RNA extracted from spinal cord of individual mice was reverse trascripted into first strand cDNA with Random Hexamers and purified Avian Myeloblastosis Virus Reverse Transcriptase (Takara, Japan) in 20 ml of reaction after a DNAse treatment and stored at −80° C. until use. Primers pair for each cytokine was designed using the software Oligo (Molecular Biology Insights, Cascade, Colo., USA). The PCR reactions were performed using the following cycle conditions: a denaturation step for 15 minutes at 95° C. and 40 cycles of 30 seconds denaturation at 94° C., 30 seconds annealing (TNF-á 61° C., IL-6 54° C., IL-1β 61° C., MCP-1 54° C., GADPH 56° C.), 15 sec at 72° C. and 7 minutes of final extension at 72° C. The PCR products were visualized by electrophoresis on agarose gel 2% stained by ethidium bromide. The purified PCR products were cloned into a plasmid vector, transformed into the E. coli TOP 10 (Invitrogen) and purified with Turbo Kit (QBIOgene, Calif., USA). The recombinant plasmid was linearized upstream the target sequence using the restriction endonuclease PmeI (Fermentas, Canada). Tenfold dilutions of recombinant plasmid from 10^9 copies down to 10^1 copies were used as standards. The real time PCR assay was developed and evaluated on the Rotor-Gene 3000 system (Corbett Research, Australia). […] The signal was acquired on the FAM channel (multichannel machine) (source, 470 nm; detector, 510 nm; gain set to 5) with the fluorescence reading taken at the end of each 72° C. step. […]

[5] = tested on: Nitrotyrosine, iNOS, MPO, COX-2, Bax and Bcl-2; assay: SCI: immunohistochemical localization of nitrotyrosine, iNOS, MPO, COX-2, Bax and Bcl-2; settings: ICI 182,780 = co-administration with 17β-estradiol
Procedure: A longitudinal incision was made on the midline of the back, exposing the paravertebral muscles. These muscles were dissected away exposing T5-T8 vertebrae. […] Following surgery, 1 ml of saline was administered subcutaneously in order to replace the blood volume lost during surgery. During the surgery and recovery from anesthesia, the mice were placed on a warm heating pad and covered with a warm towel. […] Food and water were provided to the mice ad libitum. During this time period, the animals' bladders were manually voided twice a day until the mice were able to regain normal bladder function. In all injured groups, the spinal cord was compressed for 1 min. Sham-injured animals were only subjected to laminectomy.
as §2
At 24 h after SCI, the tissues were fixed in 10% (w/v) PBS-buffered formaldehyde and 8-μm sections were prepared from paraffin embedded tissues. After deparaffinization, endogenous peroxidase was quenched with 0.3% (v/v) hydrogen peroxide in 60% (v/v) methanol for 30 min. The sections were permeabilized with 0.1% (w/v) Triton X-100 in PBS for 20 min. Non-specific adsorption was minimized by incubating the section in 2% (v/v) normal goat serum in PBS for 20 min. Endogenous biotin or avidin binding sites were blocked by sequential incubation for 15 min with biotin and avidin (DBA), respectively. Sections were incubated overnight with antinitrotyrosine rabbit polyclonal antibody (Upstate; 1:500 in PBS, v/v), with anti-iNOS polyclonal antibody rat (1:500 in PBS, v/v), anti-COX-2 monoclonal antibody (1:500 in PBS, v/v), anti-Bax rabbit polyclonal antibody (Santa Cruz Biotechnology, Inc., Santa Cruz, Calif.; 1:500 in PBS, v/v), or with anti-Bcl-2 polyclonal antibody rat (Santa Cruz Biotechnology, Inc., Santa Cruz, Calif.; 1:500 in PBS, v/v), or with anti-MPO polyclonal antibody (Santa Cruz Biotechnology, Inc., Santa Cruz, Calif.; 1:500 in PBS, v/v). Sections were washed with PBS, and incubated with secondary antibody. Specific labeling was detected with a biotin-conjugated goat anti-rabbit IgG and avidin-biotin peroxidase complex (DBA) and counterstained whith nuclear fast red. To verify the binding specificity for nitrotyrosine, iNOS, COX-2, Bax, and Bcl-2, some sections were also incubated with only the primary antibody (no secondary) or with only the secondary antibody (no primary).

[6] = SCI mice, 24 hours, dosing as E50
[7] = spinal cord, 24 hours after SCI

C[C@]12CC[C@@H]3c4ccc(O)cc4C[C@@H](CCCCCCCCC[S+]([O-])CCCC(F)(F)C(F)(F)F)[C@H]3[C@@H]1CC[C@@H]2O (stereo partly drawn) [ICI 182,780]
histological alteration of spinal cord (H&E, histological score) ([1]; 24 hours after injury, 17β-estradiol 300 μg/kg s.c. 1 h before, 3 h and 6 h after SCI, ICI 182,780 rows: 500 μg/kg s.c. 1 hour before 17β-estradiol (co-administration)): significantly blocked the effect of the 17β-estradiol on the histological alteration
myelin structure (Luxol fast blue staining) ([1]; 24 hours, dosing as E50, ICI 182,780 = co-administration with 17β-estradiol): significantly blocked the effect of the 17β-estradiol
MPO activity in the spinal cord (neutrophil infiltration) [2]: significantly blocked the effect of the 17β-estradiol on the neutrophils infiltration
Bax expression (Western blot) [3]: significantly blocked the effect of the 17β-estradiol on Bax expression
Bcl-2 expression (Western blot) [3]: significantly blocked the effect of the 17β-estradiol on the Bcl2 expression
tissue levels of IL-1β (mRNA) [4]: significantly blocked the effect of the 17β-estradiol
tissue levels of IL-6 (mRNA) [4]: significantly blocked the effect of the 17β-estradiol
tissue levels of MCP-1 (mRNA) [4]: significantly blocked the effect of the 17β-estradiol
tissue levels of TNF-α (mRNA) [4]: significantly blocked the effect of the 17β-estradiol
immunohistological staining for COX-2 [5, 6]: significantly blocked the effect of the 17β-estradiol on COX-2 expression
immunohistological staining for iNOS [5, 6]: significantly blocked the effect of the 17β-estradiol on iNOS expression
immunohistological staining for nitrotyrosine [5, 6]: significantly blocked the effect of the 17β-estradiol
staining for MPO [5, 6]: significantly blocked the effect of the 17β-estradiol on the MPO
immunohistological staining for Bax [5, 7]: significantly blocked the effect of the 17β-estradiol
immunohistological staining for Bcl-2 [5, 7]: significantly blocked the effect of the 17β-estradiol
